# Laboratory results: PMC9218239 (Current Research in Pharmacology and Drug Discovery, 2022)
# Read-outs that look alike come from different tables or passages of the source.
# Assays:
# [1] = system: CYP1A2, 2C9, 2C19, 2D6, and 3A4 pooled human supersomes; details: 10 μM, recorded from major to minor
# [2] = molecular target: CYP2C19 pooled human supersomes (Homo sapiens, UniProt P33261); assay: CYP2C19 supersome screening; type: in vitro ADME; details: 10 μM; strongly metabolized = less than 80% of the drug remaining
# CYP2C19 pooled human supersomes, sequence (P33261 whole entry): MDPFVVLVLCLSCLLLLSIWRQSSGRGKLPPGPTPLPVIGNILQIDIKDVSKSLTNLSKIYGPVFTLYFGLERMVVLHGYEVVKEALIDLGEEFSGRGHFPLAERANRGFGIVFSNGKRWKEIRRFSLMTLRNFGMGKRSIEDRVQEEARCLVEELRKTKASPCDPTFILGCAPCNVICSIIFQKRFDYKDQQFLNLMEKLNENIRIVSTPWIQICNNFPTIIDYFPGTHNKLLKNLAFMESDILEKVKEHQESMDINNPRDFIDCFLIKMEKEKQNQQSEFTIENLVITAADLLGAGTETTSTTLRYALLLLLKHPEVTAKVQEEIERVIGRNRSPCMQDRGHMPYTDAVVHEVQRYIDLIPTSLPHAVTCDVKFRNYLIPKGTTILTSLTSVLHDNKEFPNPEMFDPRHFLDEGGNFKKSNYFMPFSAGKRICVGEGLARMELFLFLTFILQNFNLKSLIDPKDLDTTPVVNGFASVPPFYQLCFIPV
# [3] = molecular target: CYP2C9 pooled human supersomes (Homo sapiens, UniProt P11712); assay: CYP2C9 supersome screening; type: in vitro ADME; details: 10 μM; strongly metabolized = less than 80% of the drug remaining
# CYP2C9 pooled human supersomes, sequence (P11712 whole entry): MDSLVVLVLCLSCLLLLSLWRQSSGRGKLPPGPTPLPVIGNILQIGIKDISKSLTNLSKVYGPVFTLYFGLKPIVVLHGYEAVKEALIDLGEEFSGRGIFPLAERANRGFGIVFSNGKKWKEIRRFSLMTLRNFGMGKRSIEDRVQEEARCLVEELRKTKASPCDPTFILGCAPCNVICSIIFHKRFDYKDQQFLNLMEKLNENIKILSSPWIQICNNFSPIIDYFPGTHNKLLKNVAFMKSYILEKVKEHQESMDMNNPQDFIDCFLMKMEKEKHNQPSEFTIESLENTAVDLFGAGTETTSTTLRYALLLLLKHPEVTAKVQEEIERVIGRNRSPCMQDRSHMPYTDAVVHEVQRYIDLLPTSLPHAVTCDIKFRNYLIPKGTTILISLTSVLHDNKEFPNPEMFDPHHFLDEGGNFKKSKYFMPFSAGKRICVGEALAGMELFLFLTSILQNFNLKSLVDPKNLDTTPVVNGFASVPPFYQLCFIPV
# [4] = system: pooled cryopreserved primary human hepatocytes; details: single drug, 10 μM, 3 h
Compound,Metabolism Pathway: CYP Pathway (isoenzymes showing parent degradation) [1],Drug remaining with CYP2C19 (strongly metabolized) [2],also measured
"COc1ccc(C(CN(C)C)C2(O)CCCCC2)cc1 (centres unmarked) [Venlafaxine, venlafaxine]","CYP 2D6∗, 2C19∗",,Metabolism Pathway: CYP Pathway (isoenzymes showing parent degradation) ([1]; listed as venlafaxine): CYP2D6 and 2C19
"CN[C@H]1CC[C@@H](c2ccc(Cl)c(Cl)c2)c2ccccc21 [Sertraline, sertraline]","CYP 2D6∗, 2C9∗, 2C19∗, 1A2, 3A4",less than 80%,"Metabolism Pathway: CYP Pathway (isoenzymes showing parent degradation) ([1]; listed as sertraline): CYP2D6, 2C9, 2C19, 1A2, and 3A4; Drug remaining with CYP2C9 (strongly metabolized) [3]: less than 80%"
"COCCCC/C(=N\OCCN)c1ccc(C(F)(F)F)cc1 [Fluvoxamine, fluvoxamine]","CYP 2D6∗, 2C9, 2C19",,"Metabolism Pathway: CYP Pathway (isoenzymes showing parent degradation) ([1]; listed as fluvoxamine): CYP2D6, 2C9, and 2C19"
"Fc1ccc([C@@H]2CCNC[C@H]2COc2ccc3c(c2)OCO3)cc1 [Paroxetine, paroxetine]",,,Potential metabolites observed in hepatocytes (alone) assays [4]: no potential metabolites observed
"CN(C)CCCC1(c2ccc(F)cc2)OCc2cc(C#N)ccc21 (centres unmarked) [Citalopram, citalopram]","CYP 2D6∗, 2C19∗, 3A4, 2C9",less than 80%,"Metabolism Pathway: CYP Pathway (isoenzymes showing parent degradation) ([1]; listed as citalopram): CYP2D6, 2C19, 3A4, and 2C9"
"COc1cc2ncnc(Nc3ccc(F)c(Cl)c3)c2cc1OCCCN1CCOCC1 [Gefitinib, gefitinib]","CYP 2D6 ∗, 3A4∗, 1A2, 2C9, 2C19",,"Metabolism Pathway: CYP Pathway (isoenzymes showing parent degradation) ([1]; listed as gefitinib): CYP2D6, 3A4, 1A2, 2C9, and 2C19"
